We go through four compounds from US20100086546A1, “Toll-LIke Receptor 4 Deficiency and Downstream Effectors Cause Pulmonary Emphysema” (Yale University, priority 2007, published 2010).

One assay has as its system Tlr4−/− MLECs. The assay can be described thus: Elastolytic activity in Tlr4−/− MLECs treated with DPI, NAC or apocynin. The format is cell-based, mouse. To be noted: DPI 10 μM, NAC 100 μM, apocynin 10 μM; 24 hours. How it is done:
MLECs were isolated by as described by Kuhlencordt et al. (Kuhlencordt P. J., et al., 2004, Am. J. Physiol. Cell Physiol. 286:C1195C1202.), with some modifications. Briefly, lungs were extracted, minced, and digested for 1 hour at 37° C. with 0.1% collagenase (Roche Diagnostics) in RPMI-1640 with 100 U/ml penicillin G and 100 μg/ml streptomycin. The digest was passed through a 100-μm cell strainer to remove undigested tissue fragments. Cells were pelleted at 200 g for 5 minutes; resuspended in MLEC medium containing 20% FBS, 40% DMEM, and 40% F12 with 100 U/ml penicillin G and 100 μg/ml streptomycin; and plated onto 0.1% gelatin-coated T75 flasks. Cells were washed after 24 hours and cultured for 2-4 days. Cells were trypsinized with 2 ml trypsin/EDTA, PBS added, and spun for 5 minutes at 200 g to remove the supernatant. Cells were resuspended in 2% FBS containing 10 μl biotin-labeled rat anti-mouse CD31 (PECAM-1) antibody (BD Biosciences—Pharmingen). After incubation on ice for 30 minutes, the cells were washed with streptavidin magnetic beads (New England Biolabs Inc.). Cells were washed with 2% FBS, resuspended in 5 ml of 2% FBS, and incubated on ice for 30 minutes. The cells were then placed on the magnet for 5 minutes, and unbound cells were removed while bound cells were resuspended in medium and plated onto a 0.1% gelatin-coated T25 flask. CD31 staining and flow cytometry confirmed that greater than 95% of the cells were endothelial cells. […]
The elastolytic activities in lung tissues, BAL, and cell lysates was determined by hydrolysis of insoluble elastin and detected spectrophotometrically using elastin-Congo red as a substrate according to the method described previously (Rust L., et al., 1994, Methods Enzymol. 235:554-562). […] The optical density of the supernatant was measured at 485 nm with a DYNEX Revelation version 3.2 spectrophotometer. The elastolytic activity was calculated as ng elastase/μg protein in the lysates according to the standard curve established by the reaction of porcine elastase and elastin-Congo red.

The test system of assay [1] is Tlr4−/− mice. Kind of assay: Total antioxidant capacity in BAL and serum of Tlr4−/− mice on antioxidant therapy. The format is in vivo, mouse. To be noted: NAC 1 g/kg or apocynin 3 mg/kg in drinking water from 3 weeks, sacrificed at 3 months; for total antioxidant content in serum: serum (data not shown). The text has this: Tlr4^−/− and MyD88^−/− mice have been previously described (Zhang X., et al., 2005, J. Immunol. 175:4834-4838; Adachi O., et al., 1998, Immunity. 9:143-150; Hoshino K., et al., 1999, J. Immunol. 162:3749-3752). TLR4-deficient mouse lines C3H/HeJ and C57BL/10ScNJ and their respective controls were purchased from The Jackson Laboratory. C57BL/6J Tlr4^−/− mice were generated after greater than 10 generations of backcrossing onto a C57BL/6J background. WT littermates were used as controls. For antioxidant therapy, Tlr4^−/− mice were randomized into 3 groups at 3 weeks of age—NAC (1 g/kg body weight; Sigma-Aldrich) (apocynin (3 mg/kg body weight; Calbiochem; EMD Biosciences) (or vehicle-only drinking water—and then sacrificed at 3 months. Mice were maintained under specific pathogen-free conditions at the animal facility of Yale University School of Medicine. Animal protocols were reviewed and approved by the Animal Care and Use Committee at Yale University. Total antioxidant capacity was measured in cell-free BAL and serum using the Quantitative Assay for Total Antioxidant Potential kit (Oxis International Inc.) according to the manufacturer's instructions. […] Bathocuproine selectively forms a 2:1 complex with Cu^+, which has a maximum absorbance at 490 nm. A standard of a known uric acid concentration was used to create a calibration curve. Results are expressed as μM copper-reducing equivalents.

Assay [2] deals with Tlr4−/− mice. Kind of assay: Elastase inhibitory capacity (EIC) in Tlr4−/− mice on antioxidant therapy. Format: in vivo, mouse. As to conditions: NAC 1 g/kg or apocynin 3 mg/kg in drinking water, BAL, 3 months. The source says: Tlr4^-/- and MyD88^-/- mice have been previously described (Zhang X., et al., 2005, J. Immunol. 175:4834-4838; Adachi O., et al., 1998, Immunity. 9:143-150; Hoshino K., et al., 1999, J. Immunol. 162:3749-3752). TLR4-deficient mouse lines C3H/HeJ and C57BL/10ScNJ and their respective controls were purchased from The Jackson Laboratory. C57BL/6J Tlr4^-/- mice were generated after greater than 10 generations of backcrossing onto a C57BL/6J background. WT littermates were used as controls. For antioxidant therapy, Tlr4^-/- mice were randomized into 3 groups at 3 weeks of age-NAC (1 g/kg body weight; Sigma-Aldrich) (apocynin (3 mg/kg body weight; Calbiochem; EMD Biosciences) (or vehicle-only drinking water-and then sacrificed at 3 months. Mice were maintained under specific pathogen-free conditions at the animal facility of Yale University School of Medicine. Animal protocols were reviewed and approved by the Animal Care and Use Committee at Yale University. EIC was assessed in BAL and serum using previously described methods (Klumpp T. et al., 1979, Clin. Chem. 25:969-97; […]., et al., 2001, Am. J. Respir. Crit. Care Med. 164:886-890). […] EICs against PPE (type III; Sigma-Aldrich) in BAL and serum were determined using succinyl-[…]-nitroanilide (SAPNA; Sigma-Aldrich) as the elastase substrate. EIC was expressed as percentage of enzyme activity inhibited by serum or BAL samples. […]

Assay [3] relates to Tlr4−/− mice. Kind of assay: Reduced GSH/oxidized GSH in BAL of Tlr4−/− mice on antioxidant therapy. Format: in vivo, mouse. To be noted: NAC 1 g/kg or apocynin 3 mg/kg in drinking water, 3 months. The text has this:
(§1) Tlr4^−/− and MyD88^−/− mice have been previously described (Zhang X., et al., 2005, J. Immunol. 175:4834-4838; Adachi O., et al., 1998, Immunity. 9:143-150; Hoshino K., et al., 1999, J. Immunol. 162:3749-3752). TLR4-deficient mouse lines C3H/HeJ and C57BL/10ScNJ and their respective controls were purchased from The Jackson Laboratory. C57BL/6J Tlr4^−/− mice were generated after greater than 10 generations of backcrossing onto a C57BL/6J background. WT littermates were used as controls. For antioxidant therapy, Tlr4^−/− mice were randomized into 3 groups at 3 weeks of age—NAC (1 g/kg body weight; Sigma-Aldrich) (apocynin (3 mg/kg body weight; Calbiochem; EMD Biosciences) (or vehicle-only drinking water—and then sacrificed at 3 months. Mice were maintained under specific pathogen-free conditions at the animal facility of Yale University School of Medicine. Animal protocols were reviewed and approved by the Animal Care and Use Committee at Yale University. The ratio of reduced GSH to oxidized GSH was measured in cell-free BAL using GSH/GSSG-412 kit (Oxis International Inc.) according to the manufacturer's instructions.

Assay [4] has as its system Tlr4−/− mice. The assay can be described thus: Emphysema (lung volume, chord length, histology) in Tlr4−/− mice on antioxidant therapy. The format is in vivo, mouse. As to conditions: NAC 1 g/kg or apocynin 3 mg/kg in drinking water from 3 weeks, sacrificed at 3 months.
Text: as §1, with “University. Mice were anesthetized, the trachea was cannulated, and the lungs were removed and inflated with PBS at 25 cm H2O.” for “University.”, “The size” for “The ratio”, “of the lung” for “of reduced GSH to oxidized GSH”, “was evaluated by volume displacement. Hematoxylin and eosin (H&E) or periodic acid-Schiff with diastase (PAS) staining was performed after pressure fixation with Streck solution (Streck Laboratories)” for “was measured”, “in” for “in cell-free BAL using GSH/GSSG-412 kit (Oxis International Inc.) according to”, “the Research Pathology Laboratory at Yale University. […]” for “the manufacturer's instructions.”

The subject of assay [5] is elastase- and cigarette smoke-induced emphysema. To be noted: aerosolized; cited from earlier work.

Take `c1ccc2c(c1)[I+]c1ccccc1-2` [DPI, diphenylene iodonium]: in the assay with Tlr4−/− MLECs, the “elastolytic activity in Tlr4−/− MLECs” value is given as “reversed to levels achieved by the broad-acting antioxidant NAC”.
Turning to `CC(=O)N[C@@H](CS)C(=O)O` [NAC], in the assay with Tlr4−/− mice [1], the “total antioxidant content in BAL” value is “increased the total antioxidant content in BAL” and the “total antioxidant content in serum” value is listed as “increased the total antioxidant content”. Besides, the EIC entry with Tlr4−/− mice [2] is given as “an increase in the EIC”. For the same compound, the “GSH levels (reduced GSH/oxidized GSH ratio)” value in the assay with Tlr4−/− mice [3] was “increased GSH levels”. Moreover, in the assay with Tlr4−/− mice [4], the “TLR4-mediated emphysema (lung volume, mean linear chord length, histology)” value is listed as “prevented TLR4-mediated emphysema”. In the assay on Tlr4−/− MLECs, the “elastolytic activity in Tlr4−/− MLECs” value is “reversed”.
Regarding `COc1cc(C(C)=O)ccc1O` [apocynin], in the assay on Tlr4−/− mice [1], the “total antioxidant content in BAL” value is on record as “increased the total antioxidant content in BAL” and the “total antioxidant content in serum” value is given as “increased the total antioxidant content”. In addition, the EIC entry in the assay with Tlr4−/− mice [2] is “an increase in the EIC”. In addition, the “GSH levels (reduced GSH/oxidized GSH ratio)” value in the assay with Tlr4−/− mice [3] is recorded as “increased GSH levels”. Also, the “TLR4-mediated emphysema (lung volume, mean linear chord length, histology)” value in the assay with Tlr4−/− mice [4] is on record as “prevented TLR4-mediated emphysema”. In addition, the “elastolytic activity in Tlr4−/− MLECs” value in the assay on Tlr4−/− MLECs is “reversed to levels achieved by the broad-acting antioxidant NAC”.
As to Hyaluronan [HA], in assay [5], the protection against emphysema entry is “protects against elastase- and cigarette smoke-induced emphysema”.
